The values below come from patent US20110002934A1, “USES OF ANTI-CD40 ANTIBODIES” (Novartis AG, priority 2007, published 2011).

Values joined by “and” are separate entries in the source; they are usually repeats but may differ in a detail not shown here. Equal values may be shown once.

The test system of data set [1] is B cells from normal human subjects. The data set is described as follows: In vitro proliferation of B cells from normal human subjects. The class given is cell-based. The protocol: B cells (4×10^4 per well) are cultured in 200 μl IMDM supplemented with 10% fetal calf serum in flat bottom 96-well microtiter plates. B cells are stimulated by addition of immobilized anti-(IgM) antibodies (Immunobeads; 5 μg/ml; BioRad, Richmond, Calif.). Where desired, 100 U/ml recombinant IL-2 is added. Varying concentrations of test monoclonal antibodies (mAbs) are added at the onset of the microcultures and proliferation is assessed at day 3 by measurement of the incorporation of (3H)-thymidine after 18 hour pulsing.
(§1) The antibody is able to kill CD40-expressing target cells by antibody dependent cellular cytotoxicity (ADCC). The binding affinity of HCD122 for human CD40 is 5×10^−10 M, as determined by the Biacore™ assay.

Data set [2] deals with CD40-expressing target cells. The data set is described as follows: Antibody dependent cellular cytotoxicity (ADCC). It counts as cell-based.
Description: as §1

A further data set relates to SU-DHL-4 cell line. The data set is described as follows: CD40L-induced expression of cell-surface adhesion molecules, SU-DHL-4 cells. It counts as cell-based, human. How it is done:
(§2) To further elucidate the mechanism by which the H-CHOP combination results in unexpectedly potent anti-tumour efficacy in vivo, further experiments were performed. The ability of B-cells cells to aggregate and interact with their microenvironment may affect the efficacy of therapeutics. The effects of HCD122 on the expression of adhesion molecules in the RL and SU-DHL-4 cell lines was therefore examined.

The target of data set [3] is soluble CD40 (Homo sapiens, UniProt P25942). The data set is described as follows: ELISA-type binding assays. For orientation: An ELISA detects its analyte on a solid surface through an enzyme-linked reagent.
The next data set addresses cell-surface CD40 (Homo sapiens, UniProt P25942). The data set is described as follows: Flow cytometric assays of CD40-ligand binding. (In flow cytometry, cells or beads pass a laser one at a time.)
The subject of data set [4] is SU-DHL-4 cells. The experiment in a line: CD40L-induced aggregation of SU-DHL-4 cells by microscopy. The class given is cell-based, human.
The subject of the next data set is RL cell line. The experiment in a line: CD40L-induced expression of cell-surface adhesion molecules, RL cells. The class given is cell-based, human. How it is done: as §2
In data set [5] the test system is RL diffuse large B-cell lymphoma (DLBCL) xenograft. The data set is described as follows: Anti-tumor activity in RL DLBCL xenograft model. It counts as in vivo. The conditions noted are these: alone or with CHOP regimen; for Tumor Growth Inhibition (TGI) on Day 25: vs control huIgG. How it is done: The anti-tumor activity of HCD122 was tested in RL DLBCL xenograft models in combination with CHOP in CB17/SCID mice. 10×10^6 RL cells were subcutaneously implanted with equal volume of Matrigel™ in the animals' midline thoracic vertebral region in a 200 μl volume. The antibody administration was initiated when the mean tumor volume was 150-200 mm^3 in size (noted as day 1 in FIG. 1). […] All monoclonal antibodies were administered on a once-a-week schedule, and the length of treatment was 4 weeks. The CHOP regimen was administered at these doses and schedule: prednisone, 0.2 mg/kg p.o. days 1-5; cytoxan, 40 mg/kg, i.v., day 1; doxorubicin 3.3 mg/kg, i.v., day 1; vincristine, 0.5 mg/kg, i.v., day 1. Group size was n=12. For tumor volume measurements, length then width were measured with a digital caliper. The measurements were recorded twice a week once the tumors became visible. Tumor volumes and doubling times were calculated based on the formula, Volume=L×W^2/2. The animals' weights were recorded and evaluated as a per group average.

In data set [6] the test system is SU-DHL-4 cells. The experiment in a line: CD40L-induced NF-kB activation, p65 phosphorylation Western blot, SU-DHL-4 cells. It counts as cell-based, human. The protocol:
(§3) RL and SU-DHL-4 cells were stimulated with CD40L for 0, 10, 30, and 90 minutes and Western blots were performed (FIG. 3). […] The phosphorylation persisted in these cell lines for at least 90 minutes. […] Down-regulating NF-kB activation in a cell may sensitize the cell to CHOP cytotoxicity (Chuang et al. (2002) Biochemical Pharmacology 63:1709-1716; Cheng et al. (2000) Oncogene 19:4936-4940).
(A western blot detects proteins with antibodies after separation by electrophoresis.)

Data set [7] concerns the target T1, human CD40 (Homo sapiens, UniProt P25942). The data set is described as follows: Biacore binding affinity assay.
Description: As used herein “anti-CD40 antibody” encompasses any antibody that specifically recognizes the CD40 antigen. […] Biacore analysis is known in the art and details are provided in the “BIAapplications handbook”.
as §1
Target sequence in this assay (P25942 21-277): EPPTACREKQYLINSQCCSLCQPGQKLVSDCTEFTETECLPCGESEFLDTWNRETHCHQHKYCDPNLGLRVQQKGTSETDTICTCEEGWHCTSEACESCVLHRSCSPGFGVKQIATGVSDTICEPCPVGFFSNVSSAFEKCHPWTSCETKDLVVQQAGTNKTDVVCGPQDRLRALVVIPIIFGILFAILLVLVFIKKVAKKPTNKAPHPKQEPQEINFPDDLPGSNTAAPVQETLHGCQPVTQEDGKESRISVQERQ

A further data set has as its system RL cells. The experiment in a line: CD40L-induced NF-kB activation, p65 phosphorylation Western blot, RL cells. It counts as cell-based, human. How it is done: as §3
The test system of data set [8] is SU-DHL-4 cells. The experiment in a line: CD40L-induced resistance to CHOP cytotoxicity (CellTiter-Glo). The class given is cell-based, human. Particulars: antibody 10 μg/ml; CD40L 1 μg/ml; 3 days; percentage of viable cells. The protocol: Experiments were performed to elucidate the mechanism by which the H-CHOP combination provides unexpectedly potent anti-tumour efficacy in vivo. SU-DHL-4 cells were cultured in the presence of (i) negative control huIgG1 antibody, (ii) HCD122, (iii) huIgG1 and CD40L or (iv) HCD122 and CD40L. SU-DHL-4 cells were seeded at 30,000 cells/well. The antibodies were all used at 10 μg/ml. Recombinant human soluble CD40L was used at 1 μg/ml with ligand enhancer at 2 μg/ml. All cells were treated with cytoxan at 1 mg/ml, prednisone at 15 μg/ml, doxrubicin at 2.5 ng/ml and vincristin at 1 pg/ml. Cells were cultured for 3 days and the percentage of viable cells determined using CellTiter-Glo.

Data set [9] has as its target T1, human CD40. The data set is described as follows: Biacore.
Data set [10] concerns the target soluble CD40 (UniProt P25942 21-193, limits assumed). The experiment in a line: ELISA-type assays.
[11] abbreviates: CD40L in the presence of HCD122.

cell-surface CD40, sequence (P25942 21-277): as above
soluble CD40 (UniProt P25942 21-193, limits assumed), sequence (P25942 21-193 limits assumed): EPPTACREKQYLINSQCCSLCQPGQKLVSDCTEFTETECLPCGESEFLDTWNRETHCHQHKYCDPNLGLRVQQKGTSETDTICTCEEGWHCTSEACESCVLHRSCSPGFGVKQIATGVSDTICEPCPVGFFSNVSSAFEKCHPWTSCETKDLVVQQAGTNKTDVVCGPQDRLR
soluble CD40 (Homo sapiens, UniProt P25942), sequence (P25942 21-193 limits assumed): as above

On to “HCD122: human IgG1 anti-CD40 monoclonal antibody, produced by hybridoma deposited with ATCC as PTA-5543”, for which the “Effects on proliferation of B cells from normal human subjects” value in data set [1] is given as “acts as antagonist anti-CD40 antibody”. Moreover, in data set [1], the “Induction of proliferation of human lymphocytes from normal subjects” value is “does not induce strong proliferation”. In addition, the “Killing of CD40-expressing target cells by ADCC” value in [2] was “able to kill”. Moreover, the “CD40L-induced expression of CD54, CD86 and CD95” value with SU-DHL-4 cell line and in the data set on RL cell line was “inhibit” in each case. For the same molecule, the “Binding to soluble CD40” value with soluble CD40 [3] is “binds soluble CD40”. The “Binding of CD40-ligand to cell-surface CD40” value with cell-surface CD40 is “prevents the binding”. Moreover, the “Displacement of pre-bound CD40-ligand” value with cell-surface CD40 is “displaces the pre-bound CD40-ligand”. Besides, the “CD40L-induced aggregation of SU-DHL-4 cells” value with SU-DHL-4 cells [4] was “inhibited”. Also, the “Tumor Growth Inhibition (TGI) on Day 25” value is 28.65% in [5] (antibody 0.1 mg/kg i.p. once a week for 4 weeks); 71% and 71.15% in [5] (antibody 1 mg/kg i.p. once a week for 4 weeks). For the same molecule, the “Tumor-growth delay (time to reach tumor size of 500 mm^3)” value in data set [5] (antibody 0.1 mg/kg i.p. once a week) is listed as 1.5 days; in data set [5] (antibody 1 mg/kg i.p. once a week) it was 6 days. Moreover, the “NF-kB activation induced by CD40L” value with SU-DHL-4 cells [6] and with RL cells was “completely blocked” in each case. The “Phosphorylation of p65 on CD40L stimulation” value in the data set with SU-DHL-4 cells [6] (setting [11]) and with RL cells (setting [11]) was “greatly inhibited” in each case. Also, in the data set with human CD40 [7], binding was put at a Kd of 0.5 nM. The “CD40L-induced resistance to CHOP cytotoxicity” value in the data set on SU-DHL-4 cells [8] is listed as “resistance can be overcome”.

B1: monoclonal antibody HCD122 (antibody, human IgG1, kappa, V domains shown)
VH: QVQLVESGGGVVQPGRSLRLSCAASGFTFSSYGMHWVRQAPGKGLEWVAVISYEESNRYHADSVKGRFTISRDNSKITLYLQMNSLRTEDTAVYYCARDGGIAAPGPDYWGQGTLVTVSS
VL: DIVMTQSPLSLTVTPGEPASISCRSSQSLLYSNGYNYLDWYLQKPGQSPQVLISLGSNRASGVPDRFSGSGSGTDFTLKISRVEAEDVGVYYCMQARQTPFTFGPGTKVDIRR
notes: Fully human IgG1 kappa antibody from XenoMouse; hybridoma ATCC PTA-5543; also called CHIR-12.12; anti-CD40 antibody
In the case of B1, the Kd (commonly a measure of binding affinity in units of concentration) with human CD40 [9] turned out to be 0.5 nM. Further, in the data set with soluble CD40 [10], the binding result is listed as “binds”.
